# Data reported in patent publication US9302999B2, “Substituted triazoles as herbicides” (E. I. DU PONT DE NEMOURS AND COMPANY, priority 2012, dated 2016).
# Like-named read-outs stand apart in the source and are kept apart here.
# Columns and labels:
# Assay type in all cases: in vivo
# [1] = test system: johnsongrass (Sorghum halepense); assay: Test C pre-/postemergence: johnsongrass; details: Postemergence
# In short: (§1)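 Visual injury scored 0–100 (100 = complete control) against untreated controls after 13–15 greenhouse days. Surfactant-containing solvent formulations applied either to soil after sowing (loam/sand) or over 1- to 4-leaf plants, 2–18 cm tall.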
# [2] = test system: winter wheat (Triticum aestivum); assay: Test C pre-/postemergence: winter wheat
# In short: as §1
# soybean (Glycine max) = assay: Test C pre-/postemergence: soybean; details: Postemergence
# In short: as §1
# corn (Zea mays) [3] = assay: Test C pre-/postemergence: corn; details: Postemergence
# From the text: (§2) Seeds of plant species selected from blackgrass (Alopecurus myosuroides), bromegrass, downy (downy bromegrass, Bromus tectorum), foxtail, green (green foxtail, Setaria viridis), ryegrass, Italian (Italian ryegrass, Lolium multiflorum), winter wheat (Triticum aestivum), wild oat (Avena fatua), galium (catchweed bedstraw, Galium aparine), bermudagrass (Cynodon dactylon), surinam grass (Brachiaria decumbens), cocklebur (common cocklebur, Xanthium strumarium), corn (Zea mays), large crabgrass (Digitaria sanguinalis), woolly cupgrass (Eriochloa villosa), foxtail, giant (giant foxtail, Setaria faberii), goosegrass (Eleusine indica), johnsongrass (Sorghum halepense), kochia (Kochia scoparia), lambsquarters (Chenopodium album), morningglory (Ipomoea coccinea), nightshade (eastern black nightshade, Solanum ptycanthum), nutsedge, yellow (yellow nutsedge, Cyperus esculentus), pigweed (Amaranthus retroflexus), ragweed (common ragweed, Ambrosia elation), soybean (Glycine max), common (oilseed) sunflower (Helianthus annuus), Russian thistle (Salsola kali) and velvetleaf (Abutilon theophrasti) were planted into a blend of loam soil and sand and treated preemergence with test chemicals formulated in a non-phytotoxic solvent mixture which included a surfactant.
# (§3) At the same time, plants selected from these crop and weed species and also barley (winter barley, Hordeum vulgare), canarygrass (Phalaris minor), chickweed (common chickweed, Stellaria media) windgrass (Apera spica-venti) and deadnettle (henbit deadnettle, Lamium amplexicaule) were planted in pots containing Redi-Earth® planting medium (Scotts Company, 14111 Scottslawn Road, Marysville, Ohio 43041) comprising spaghnum peat moss, vermiculite, wetting agent and starter nutrients and treated with postemergence applications of test chemicals formulated in the same manner. Plants ranged in height from 2 to 18 cm (1- to 4-leaf stage) for postemergence treatments.
# (§4) Treated plants and controls were maintained in a greenhouse for 13 to 15 days, after which time all species were compared to controls and visually evaluated. Plant response ratings, summarized in Table C, are based on a scale of 0 to 100 where 0 is no effect and 100 is complete control. A dash (-) response means no test result.
# corn (Zea mays) [4] = assay: Test A pre-/postemergence: corn
# In short: (§5)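 Whole-plant greenhouse assay in loam/sand. Preemergence directed soil spray plus simultaneous postemergence spray (one- to two-leaf stage, 2–10 cm). Rated visually ~10 days later, 0 = no effect, 100 = complete control.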
# [5] = test system: galium (catchweed bedstraw, Galium aparine); assay: Test C pre-/postemergence: galium
# In short: as §1
# [6] = test system: chickweed (common chickweed, Stellaria media); assay: Test C postemergence: chickweed
# From the text: as §3, §4
# [7] = test system: pigweed (Amaranthus retroflexus); assay: Test A pre-/postemergence: pigweed; details: for pest or weed control at 125 g/ha / pest or weed control at 500 g/ha: Amaranthus retroflexus, 240 h
# In short: as §5
# [8] = test system: velvetleaf (Abutilon theophrasti); assay: Test C pre-/postemergence: velvetleaf; details: Postemergence
# From the text: as §2, §3, §4
# [9] = test system: nutsedge, yellow (yellow nutsedge, Cyperus esculentus); assay: Test C pre-/postemergence: nutsedge, yellow; details: Postemergence
# From the text: as §2, §3, §4
# [10] = test system: foxtail, giant (giant foxtail, Setaria faberii); assay: Test C pre-/postemergence: foxtail, giant; details: Postemergence
# In short: as §1
# [11] = test system: morningglory (Ipomoea coccinea); assay: Test C pre-/postemergence: morningglory; details: Postemergence
# In short: as §1
# [12] = 31 g ai/ha, scale 0 to 100 (0 no effect, 100 complete control)
# [13] = 62 g ai/ha, scale 0 to 100 (0 no effect, 100 complete control)
# [14] = 125 g ai/ha, scale 0 to 100, 0 no effect, 100 complete control
# [15] = Postemergence, 31 g ai/ha, scale 0 to 100 (0 no effect, 100 complete control)
# [16] = Postemergence, 62 g ai/ha, scale 0 to 100 (0 no effect, 100 complete control)
# [17] = Postemergence, 125 g ai/ha, scale 0 to 100, 0 no effect, 100 complete control
# [18] = Postemergence, 250 g ai/ha, scale 0 to 100
# [19] = Preemergence, 31 g ai/ha, scale of 0 to 100, 0 is no effect, 100 is complete control
# [20] = Preemergence, 62 g ai/ha, scale of 0 to 100, 0 is no effect, 100 is complete control
# [21] = Preemergence, 125 g ai/ha, scale 0 to 100, 0 no effect, 100 complete control
# [22] = Preemergence, 250 g ai/ha, scale 0 to 100, 0 no effect, 100 complete control
# [23] = Postemergence, 125 g ai/ha, 0 to 100 scale, 0 is no effect, 100 is complete control
# [24] = Postemergence, 500 g ai/ha, visual rating on 0 to 100 scale (0 no effect, 100 complete control), approximately ten days
# [25] = Preemergence, 125 g ai/ha, 0 to 100 scale where 0 is no effect and 100 is complete control
# [26] = Preemergence, 500 g ai/ha, 0 to 100 scale (0 no effect, 100 complete control)
compound,measurement,setting,value
"Cc1nn(-c2ccc(F)cc2)nc1Cc1ccnc(C(F)(F)F)c1 [Compound 16, 4-[[2-(4-fluorophenyl)-5-methyl-2H-1,2,3-triazol-4-yl]methyl]-2-(trifluoromethyl)pyridine]","Plant response rating, Johnsongrass",[1]; [12],0
same,"Plant response rating, Johnsongrass",[1]; [13],0
same,"Plant response rating, Johnsongrass",[1]; [14],45
same,"Plant response rating, Johnsongrass","[1]; 250 g ai/ha, scale 0 to 100",45
same,"Plant response rating, Wheat",[2]; [15],5
same,"Plant response rating, Wheat",[2]; [16],20
same,"Plant response rating, Wheat",[2]; [17],25
same,"Plant response rating, Wheat",[2]; [18],30
same,"Plant response rating, Wheat",[2]; [19],0
same,"Plant response rating, Wheat",[2]; [20],5
same,"Plant response rating, Wheat",[2]; [21],15
same,"Plant response rating, Wheat",[2]; [22],45
same,"Plant response rating, Soybean",soybean (Glycine max); [12],20
same,"Plant response rating, Soybean",soybean (Glycine max); [13],25
same,"Plant response rating, Soybean",soybean (Glycine max); [14],35
same,"Plant response rating, Soybean","soybean (Glycine max); 250 g ai/ha, scale 0 to 100",35
same,"Plant response rating, Corn",corn (Zea mays) [3]; [12],5
same,"Plant response rating, Corn",corn (Zea mays) [3]; [13],15
same,"Plant response rating, Corn",corn (Zea mays) [3]; [14],15
same,"Plant response rating, Corn","corn (Zea mays) [3]; 250 g ai/ha, scale 0 to 100",15
same,plant injury at 125 g/ha,"corn (Zea mays) [4]; Zea mays, post-emergence, 240 h, Postemergence, 125 g ai/ha, 0 to 100 scale, 0 is no effect, 100 is complete control, read-out: Corn plant response rating",30%
same,plant injury at 500 g/ha,"corn (Zea mays) [4]; Zea mays, post-emergence, 240 h, Postemergence, 500 g ai/ha, visual rating on 0 to 100 scale (0 no effect, 100 complete control), approximately ten days, read-out: Corn plant response rating",50%
same,"Corn plant response rating (crop injury, 0 = no effect, 100 = complete kill) at 125 g/ha","corn (Zea mays) [4]; Zea mays, pre-emergence, 240 h, Preemergence, 125 g ai/ha, 0 to 100 scale (0 no effect, 100 complete control)",10%
same,"Corn plant response rating (crop injury, 0 = no effect, 100 = complete kill) at 500 g/ha","corn (Zea mays) [4]; Zea mays, pre-emergence, 240 h, Preemergence, 500 g ai/ha, 0 to 100 scale, 0 is no effect, 100 is complete control",20%
same,"Plant response rating, Galium",[5]; [15],60
same,"Plant response rating, Galium",[5]; [16],65
same,"Plant response rating, Galium",[5]; [17],80
same,"Plant response rating, Galium",[5]; [18],90
same,"Plant response rating, Galium",[5]; [19],100
same,"Plant response rating, Galium",[5]; [20],100
same,"Plant response rating, Galium",[5]; [21],100
same,"Plant response rating, Galium",[5]; [22],100
same,"Plant response rating, Chickweed",[6]; [12],85
same,"Plant response rating, Chickweed",[6]; [13],98
same,"Plant response rating, Chickweed",[6]; [14],100
same,"Plant response rating, Chickweed","[6]; 250 g ai/ha, scale 0 to 100",100
same,pest or weed control at 125 g/ha,"[7]; post-emergence, Postemergence, 125 g ai/ha, 0 to 100 scale, 0 is no effect, 100 is complete control, read-out: Pigweed plant response rating",100%
same,pest or weed control at 500 g/ha,"[7]; post-emergence, Postemergence, 500 g ai/ha, visual rating on 0 to 100 scale (0 no effect, 100 complete control), approximately ten days, read-out: Pigweed plant response rating",100%
same,pest or weed control at 125 g/ha,"[7]; pre-emergence, Preemergence, 125 g ai/ha, 0 to 100 scale (0 no effect, 100 complete control), read-out: Plant response rating, Pigweed",90%
same,pest or weed control at 500 g/ha,"[7]; pre-emergence, Preemergence, 500 g ai/ha, 0 to 100 scale, 0 is no effect, 100 is complete control, read-out: Plant response rating, Pigweed",100%
same,"Plant response rating, Velvetleaf",[8]; [12],10
same,"Plant response rating, Velvetleaf",[8]; [13],65
same,"Plant response rating, Velvetleaf",[8]; [14],65
same,"Plant response rating, Velvetleaf","[8]; 250 g ai/ha, scale 0 to 100",85
same,"Plant response rating, Nutsedge, Yellow",[9]; [12],0
same,"Plant response rating, Nutsedge, Yellow",[9]; [13],0
same,"Plant response rating, Nutsedge, Yellow",[9]; [14],0
same,"Plant response rating, Nutsedge, Yellow","[9]; 250 g ai/ha, scale 0 to 100",0
same,"Plant response rating, Foxtail, Giant",[10]; [12],40
same,"Plant response rating, Foxtail, Giant",[10]; [13],40
same,"Plant response rating, Foxtail, Giant",[10]; [14],50
same,"Plant response rating, Foxtail, Giant","[10]; 250 g ai/ha, scale 0 to 100",50
same,"Plant response rating, Morningglory",[11]; [12],50
same,"Plant response rating, Morningglory",[11]; [13],75
same,"Plant response rating, Morningglory",[11]; [14],75
same,"Plant response rating, Morningglory","[11]; 250 g ai/ha, scale 0 to 100",80
Cc1nn(-c2ccnc(C(F)(F)F)c2)nc1Cc1ccnc(C(F)(F)F)c1 [Compound 137],"Plant response rating, Johnsongrass",[1]; [12],5
same,"Plant response rating, Johnsongrass",[1]; [13],40
same,"Plant response rating, Johnsongrass",[1]; [14],80
same,"Plant response rating, Johnsongrass","[1]; 250 g ai/ha, scale 0 to 100",90
same,"Plant response rating, Wheat",[2]; [15],10
same,"Plant response rating, Wheat",[2]; [16],15
same,"Plant response rating, Wheat",[2]; [17],30
same,"Plant response rating, Wheat",[2]; [18],35
same,"Plant response rating, Soybean",soybean (Glycine max); [12],40
same,"Plant response rating, Soybean",soybean (Glycine max); [13],55
same,"Plant response rating, Soybean",soybean (Glycine max); [14],55
same,"Plant response rating, Soybean","soybean (Glycine max); 250 g ai/ha, scale 0 to 100",60
same,Corn plant response rating,corn (Zea mays) [4]; [23],20
same,Corn plant response rating,corn (Zea mays) [4]; [24],30
same,"Plant response rating, Corn",corn (Zea mays) [4]; [25],0
same,"Plant response rating, Corn",corn (Zea mays) [4]; [26],0
same,"Plant response rating, Galium",[5]; [15],45
same,"Plant response rating, Galium",[5]; [16],70
same,"Plant response rating, Galium",[5]; [17],70
same,"Plant response rating, Galium",[5]; [18],70
same,"Plant response rating, Chickweed",[6]; [12],70
same,"Plant response rating, Chickweed",[6]; [13],80
same,"Plant response rating, Chickweed",[6]; [14],98
same,"Plant response rating, Chickweed","[6]; 250 g ai/ha, scale 0 to 100",98
same,"Plant response rating, Pigweed",[7]; [23],100
same,Pigweed plant response rating,[7]; [24],100
same,"Plant response rating, Pigweed",[7]; [25],100
same,"Plant response rating, Pigweed",[7]; [26],100
same,"Plant response rating, Velvetleaf",[8]; [12],35
same,"Plant response rating, Velvetleaf",[8]; [13],55
same,"Plant response rating, Velvetleaf",[8]; [14],55
same,"Plant response rating, Velvetleaf","[8]; 250 g ai/ha, scale 0 to 100",70
same,"Plant response rating, Nutsedge, Yellow",[9]; [12],5
same,"Plant response rating, Nutsedge, Yellow",[9]; [13],10
same,"Plant response rating, Nutsedge, Yellow",[9]; [14],10
same,"Plant response rating, Nutsedge, Yellow","[9]; 250 g ai/ha, scale 0 to 100",15
same,"Plant response rating, Foxtail, Giant",[10]; [12],10
same,"Plant response rating, Foxtail, Giant",[10]; [13],40
same,"Plant response rating, Foxtail, Giant","[10]; 250 g ai/ha, scale 0 to 100",50
same,"Plant response rating, Morningglory",[11]; [13],60
same,"Plant response rating, Morningglory",[11]; [14],80
same,"Plant response rating, Morningglory","[11]; 250 g ai/ha, scale 0 to 100",90
